Assays:
[1] = tested on: enzyme associated with Bacillus stearothermophilus spores; test: Rapid enzyme fluorescence readout of dual rapid readout indicators after prevacuum steam sterilization; type: biochemical; conditions: 4-pulse prevacuum steam 121° C.
Protocol: (§1) The indicators prepared for the Examples were dual rapid readout indicators that provided both a rapid, enzyme-based efficacy test and a confirmatory spore outgrowth test. Spores coated on the carrier strip 16 served as the source of active enzyme whose activity was measured by the rapid enzyme test. These same spores were then incubated in the spore outgrowth portion of the test.
(§2) Bacillus stearothermophilus, commercially available as ATCC 7953 from American Type Culture Collection, Rockville, Md., was grown overnight (16 hours) at 58° C. in tryptic soy broth. This culture was used to inoculate the surface of agar plates consisting of 8 g/l nutrient broth, 4 g/l yeast extract, 0.1 g/l manganese chloride and 20 g/l agar at pH 7.2. Plates were incubated at 58° C. for 72 hours. Spores were scraped from the plates and suspended in sterile distilled water. The spores were separated from the vegetative debris by centrifuging the suspension at 7000 rpm and 4° C. for 20 minutes. The supernatant was poured off and the spores were resuspended in sterile distilled water. The cleaning procedure was repeated several times. After the final wash, the spores were suspended in sterile distilled water, at a concentration of approximately 1×10^8 spores per milliliter.
(§3) The spores were then treated with the chemicals identified in Tables 1–5. All chemicals tested were obtained from commercial sources. The spores were centrifuged at 6000 rpm for 10 minutes. The supernatant and coating chemical mixtures were heated at 60–80° C. for several minutes and vortexed to get the material into solution. The spores were then mixed into the sterilant-resistant chemical solution. The sterilant-resistant chemical solution was applied to 5×25 mm, 591 A paper strips (Schleicher & Schuell, Inc., Keene, N.H.) by pipetting 10–15 microliters to each strip for a final population of about 1×10^6 spores per strip. The strips were dried 16 hours at 37° C.
(§4) The treated spore strips were placed on the bottom of the outer container 12 of the indicator 10 and a barrier was inserted between the spore strip 16 and the inner container 18, which contained enzyme substrate. A […] ( 11/16 inch) disc of polypropylene blown microfiber material, with a weight of 200 g/m^2, commercially available as “THINSULATE™ 200-B brand Thermal Insulation” from 3M Company, St. Paul, Minn., was used as the barrier. The inner container 18 contained 0.67 ml nutrient medium, consisting of 17 g of a bacteriological peptone and a 0.17 g/l of L-alanine, as well as 0.1 g 4-methylumbelliferyl-alpha-D-glucoside, commercially available from Sigma Chemical Company, St. Louis, Mo., dissolved in 200 microliters of N,N-dimethylformamide, and 0.03 g bromocresol purple pH indicator dye, per liter of water. The pH of the enzyme substrate and nutrient medium solution was adjusted to 7.6 with 0.1N sodium hydroxide.
(§5) Sterilization indicators were made as described above with each of the chemicals and concentrations described in Table 1. Control indicators were made using untreated spores. The indicators were placed in metal instrument trays and exposed at 121° C. in a Getinge Steam Sterilizer (Getinge International, Inc., 1100 Towbin Ave., Lakewood, N.J.) using a 4-pulse prevacuum cycle at 121° C. with a vacuum level of 0.075–0.085 bar and a steam pulse to 1.00 bar for each pulse. Indicators were exposed in the sterilizer for between 7 and 13 minutes. This cycle is depicted in the time-pressure diagram in FIG. 5. After exposure the inner containers containing the enzyme substrate and nutrient medium were crushed and the indicators were incubated at 60° C. The indicators were examined for fluorescence using a 3M™ ATTEST™ Model 190 Rapid Autoreader, commercially available from 3M Company, St. Paul, Minn. Additionally, spore growth, as indicated by a color change from purple to yellow, was determined visually after 168 hours of incubation at 60° C. […]

[2] = tested on: Bacillus stearothermophilus spores; test: Spore outgrowth (color change) of indicators after prevacuum steam sterilization; type: cell-based; conditions: 4-pulse prevacuum steam 121° C.
Protocol: as §1, §2, §3, §4, §5

[3] = Example 2, 5 mg/ml coating, 7–13 min
[4] = Example 2, 10 mg/ml coating, 7–13 min
[5] = Example 2, 20 mg/ml coating, 7–13 min
[6] = Example 2, 40 mg/ml coating, 7–13 min
[7] = Example 2, 80 mg/ml coating, 7–13 min
[8] = Example 2, 100 mg/ml coating, 7–13 min
[9] = Example 1, 20 mg/ml coating, 7–13 min
[10] = Example 1, 40 mg/ml coating, 7–13 min
[11] = Example 4, 50 mg/ml coating, 7–18 min
[12] = Example 4, 100 mg/ml coating, 7–18 min
[13] = Example 5, 50 mg/ml coating, 7–13 min
[14] = Example 5, 100 mg/ml coating, 7–13 min

OCC(O)COCC(O)COCC(O)COCC(O)COCC(O)COCC(O)COCC(O)COCC(O)COCC(O)COCC(O)CO (centres unmarked) [Decaglycerol]
FLUORESCENCE - PERCENT POSITIVE 1 HR [1, 3]: 0%
FLUORESCENCE - PERCENT POSITIVE 2 HR [1, 3]: 0%
FLUORESCENCE - PERCENT POSITIVE 3 HR [1, 3]: 0%
FLUORESCENCE - PERCENT POSITIVE 4 HR [1, 3]: 23.1%
FLUORESCENCE - PERCENT POSITIVE 5 HR [1, 3]: 23.1%
FLUORESCENCE - PERCENT POSITIVE 6 HR [1, 3]: 30.8%
FLUORESCENCE - PERCENT POSITIVE 1 HR [1, 4]: 0%
FLUORESCENCE - PERCENT POSITIVE 2 HR [1, 4]: 0%
FLUORESCENCE - PERCENT POSITIVE 3 HR [1, 4]: 7.7%
FLUORESCENCE - PERCENT POSITIVE 4 HR [1, 4]: 23.1%
FLUORESCENCE - PERCENT POSITIVE 5 HR [1, 4]: 23.1%
FLUORESCENCE - PERCENT POSITIVE 6 HR [1, 4]: 30.8%
FLUORESCENCE - PERCENT POSITIVE 1 HR [1, 5]: 0%
FLUORESCENCE - PERCENT POSITIVE 2 HR [1, 5]: 0%
FLUORESCENCE - PERCENT POSITIVE 3 HR [1, 5]: 9.1%
FLUORESCENCE - PERCENT POSITIVE 4 HR [1, 5]: 18.2%
FLUORESCENCE - PERCENT POSITIVE 5 HR [1, 5]: 45.5%
FLUORESCENCE - PERCENT POSITIVE 6 HR [1, 5]: 63.6%
FLUORESCENCE - PERCENT POSITIVE 1 HR [1, 6]: 0%
FLUORESCENCE - PERCENT POSITIVE 2 HR [1, 6]: 0%
FLUORESCENCE - PERCENT POSITIVE 3 HR [1, 6]: 7.7%
FLUORESCENCE - PERCENT POSITIVE 4 HR [1, 6]: 42.3%
FLUORESCENCE - PERCENT POSITIVE 5 HR [1, 6]: 46.2%
FLUORESCENCE - PERCENT POSITIVE 6 HR [1, 6]: 53.8%
FLUORESCENCE - PERCENT POSITIVE 1 HR [1, 7]: 0%
FLUORESCENCE - PERCENT POSITIVE 2 HR [1, 7]: 12.0%
FLUORESCENCE - PERCENT POSITIVE 3 HR [1, 7]: 36.0%
FLUORESCENCE - PERCENT POSITIVE 4 HR [1, 7]: 64.0%
FLUORESCENCE - PERCENT POSITIVE 5 HR [1, 7]: 72.0%
FLUORESCENCE - PERCENT POSITIVE 6 HR [1, 7]: 76.0%
FLUORESCENCE - PERCENT POSITIVE 1 HR [1, 8]: 0%
FLUORESCENCE - PERCENT POSITIVE 2 HR [1, 8]: 6.9%
FLUORESCENCE - PERCENT POSITIVE 3 HR [1, 8]: 48.3%
FLUORESCENCE - PERCENT POSITIVE 4 HR [1, 8]: 69.0%
FLUORESCENCE - PERCENT POSITIVE 5 HR [1, 8]: 79.3%
FLUORESCENCE - PERCENT POSITIVE 6 HR [1, 8]: 89.7%
NO. GROWTH POSITIVE 168 HR [2, 3]: 13
NO. GROWTH POSITIVE 168 HR [2, 4]: 13
NO. GROWTH POSITIVE 168 HR [2, 5]: 11
NO. GROWTH POSITIVE 168 HR [2, 6]: 26
NO. GROWTH POSITIVE 168 HR [2, 7]: 25
NO. GROWTH POSITIVE 168 HR [2, 8]: 29

Glycereth-7-diisononanoate
FLUORESCENCE - PERCENT POSITIVE 1 HR [1, 9]: 0%
FLUORESCENCE - PERCENT POSITIVE 2 HR [1, 9]: 0%
FLUORESCENCE - PERCENT POSITIVE 3 HR [1, 9]: 66.7%
FLUORESCENCE - PERCENT POSITIVE 4 HR [1, 9]: 83.3%
FLUORESCENCE - PERCENT POSITIVE 5 HR [1, 9]: 83.3%
FLUORESCENCE - PERCENT POSITIVE 6 HR [1, 9]: 83.3%
FLUORESCENCE - PERCENT POSITIVE 1 HR [1, 10]: 0%
FLUORESCENCE - PERCENT POSITIVE 2 HR [1, 10]: 64.7%
FLUORESCENCE - PERCENT POSITIVE 3 HR [1, 10]: 88.2%
FLUORESCENCE - PERCENT POSITIVE 4 HR [1, 10]: 88.2%
FLUORESCENCE - PERCENT POSITIVE 5 HR [1, 10]: 94.1%
FLUORESCENCE - PERCENT POSITIVE 6 HR [1, 10]: 100.0%
NO. GROWTH POSITIVE 168 HR [2, 9]: 6
NO. GROWTH POSITIVE 168 HR [2, 10]: 17

Decaglyceryl Monooleate
accuracy of sterilization indicators compared to indicators made with untreated spores [1]: improved
FLUORESCENCE - PERCENT POSITIVE 1 HR [1, 11]: 0%
FLUORESCENCE - PERCENT POSITIVE 2 HR [1, 11]: 0%
FLUORESCENCE - PERCENT POSITIVE 3 HR [1, 11]: 0%
FLUORESCENCE - PERCENT POSITIVE 4 HR [1, 11]: 0%
FLUORESCENCE - PERCENT POSITIVE 1 HR [1, 12]: 7.7%
FLUORESCENCE - PERCENT POSITIVE 2 HR [1, 12]: 23.1%
FLUORESCENCE - PERCENT POSITIVE 3 HR [1, 12]: 50%
FLUORESCENCE - PERCENT POSITIVE 4 HR [1, 12]: 73.1%
FLUORESCENCE - PERCENT POSITIVE 1 HR [1, 13]: 0%
FLUORESCENCE - PERCENT POSITIVE 2 HR [1, 13]: 0%
FLUORESCENCE - PERCENT POSITIVE 3 HR [1, 13]: 0%
FLUORESCENCE - PERCENT POSITIVE 4 HR [1, 13]: 0%
FLUORESCENCE - PERCENT POSITIVE 1 HR [1, 14]: 0%
FLUORESCENCE - PERCENT POSITIVE 2 HR [1, 14]: 50%
FLUORESCENCE - PERCENT POSITIVE 3 HR [1, 14]: 100%
FLUORESCENCE - PERCENT POSITIVE 4 HR [1, 14]: 100%
NO. GROWTH POSITIVE 168 HR [2, 11]: 10
NO. GROWTH POSITIVE 168 HR [2, 12]: 26
NO. GROWTH POSITIVE 168 HR [2, 13]: 6
NO. GROWTH POSITIVE 168 HR [2, 14]: 2
